Literature values, collected in patent publication US20230131859A1, “BIOCONVERSION OF OLEUROPEIN” (SOCIETE DES PROUITS NESTLES S.A., priority 2017, published 2023).

Legend:
[1] = in vivo
[2] = compared with hydroxytyrosol

Compound	clearance from the plasma [1]	solubility in the lipophilic phases [2]
CC=C1C(O)OC=C(C(=O)OC)C1CC(=O)OCCc1ccc(O)c(O)c1 (centres unmarked) [oleuropein aglycone, 3,4-dihydroxyphenylethanol-elenolic acid]	slower clearance from the plasma compared with hydroxytyrosol and oleuropein	
hydroxytyrosol acetate		more soluble in the lipophilic phases than hydroxytyrosol
